Laboratory results published in patent US6399745B1, “Use of leptin antagonists for treating insulin resistance in type II diabetes” (Aventis Pharma Deutschland GmbH, priority 1996, dated 2002).

Tests used:
ob/ob mice = conditions: injection; cited from earlier work
isolated rat adipocytes [1] = assay: Insulin stimulation of glycogenesis in isolated rat adipocytes under leptin; assay type: cell-based; conditions: basal values unaffected
C2C12 mouse myotubes = conditions: cited from earlier work
[2] = test system: insulin receptor and insulin receptor substrate 1 (IRS-1); conditions: rat 1 fibroblasts overexpressing human insulin receptor; cited from earlier work
isolated rat adipocytes [3] = assay: Lipogenesis (incorporation of D-glucose into toluene-extractable lipids) in isolated rat adipocytes after primary culture with leptin; assay type: cell-based; conditions: for Lipogenesis, stimulation factor for insulin (stimulated/basal): Insulin concentration: 5 nM
Protocol: Adipocytes were prepared from the epididymal fat tissue of male Wistar rats (140-160 g, Hoechst AG breeding station, Kastengrund) by means of digesting with collagenase (Rodbell, 1964, J. Biol. Chem. 239, 375-380), washed twice with KRH (25 mM Hepes free acid, 25 mM Hepes sodium salt, 80 mM NaCl, 1 mM MgSO4, 2 mM CaCl2, 6 mM KCl, 1 mM sodium pyruvate, 0.5% BSA) and once with DMEM (Dulbecco's minimal essential medium), supplemented with 5.5 mM glucose, 20 mM Hepes (pH 7.4), 2% fetal calf serum, 1% BSA, 50 U of penicillin/ml, […], by means of flotation (800×g, 1 min, in small plastic tubes), and finally diluted to a volume of 20 ml of DMEM/g wet weight of the fat tissue (cell titer: approximately 2.5×10^5 cells/ml). The adipocytes were incubated, at 37° C. for 15-18 h under an atmosphere of 5% CO2 and with gentle shaking, in supplemented (see above) DMEM in the presence of 100 nM phenylisopropyladenosine (4 ml of DMEM to 1 ml of cells, cell titer approximately 5×10^4 cell/ml, in 50 ml sterile polypropylene: tubes) and in the presence or absence of leptin. The adipocytes were subsequently washed three times with cold KRH and adjusted to a cell titer of approximately 3×10^5 cells/ml by adding 0.7 ml of glucose-free KRH to the cell layer which remained after the complete removal of the last washing solution. In order to determine the capacity of the adipocytes to be stimulated by insulin, and their sensitivity to insulin, following the primary culture, the washed adipocytes were incubated at 37° C. for 20 min in the absence or presence of human insulin (0.02-50 nM final concentration), and glucose transport or lipogenesis was then measured. Lipogenesis was measured as the incorporation of D-glucose into toluene-extractable lipids (Moody et al., 1974, Horm. Metab. Res. 6, 12-16). 200 μl of the adipocyte suspension in KRH were incubated in scintillation vials, at 37° C. for 20 min, in 680 μl of KRH which was supplemented with 3.5 mM glucose and 20 μl of insulin solution. Lipogenesis was started by adding 100 μl of D-[3-^3H]glucose (25 μCi/ml KRH). After incubating at 37° C., and gently shaking under an atmosphere of 5% CO2, for 90 min, 10 ml of scintillation fluid (toluene-based) were added and the radioactivity in the toluene phase was determined after shaking vigorously and subsequent phase separation (at least 4 h of incubation). The radioactivity of the lipids in the toluene phase was corrected for the radioactivity of an incubation mixture which contained the same quantity of [^3H]glucose but no cells. Isolated rat adipocytes were incubated for 15 h in primary culture in the presence or absence of increasing concentrations of leptin. The cells were then washed and tested for glucose transport and lipogenesis in the basal and insulin (10 nM)-stimulated states. The stimulation factor for insulin was calculated as the ratio between insulin-stimulated and basal activities. Each value represents the mean from two independent adipocyte cultures with activity being determined two or three times in each case.

Substance | nutrient intake (ob/ob mice) | weight (ob/ob mice) | insulin sensitivity of stimulation of glycogenesis (isolated rat adipocytes [1]) | glucose transport (C2C12 mouse myotubes) | glycogen synthesis (C2C12 mouse myotubes) | insulin-induced phosphorylation of the insulin receptor and of IRS-1 [2] | Lipogenesis, stimulation factor for insulin (stimulated/basal) (isolated rat adipocytes [3]; leptin 0.3 nM 15 h) | Lipogenesis, stimulation factor for insulin (stimulated/basal) (isolated rat adipocytes [3]; leptin 1 nM 15 h) | Lipogenesis, stimulation factor for insulin (stimulated/basal) (isolated rat adipocytes [3]; leptin 3 nM 15 h) | Lipogenesis, stimulation factor for insulin (stimulated/basal) (isolated rat adipocytes [3]; leptin 10 nM 15 h) | Lipogenesis, stimulation factor for insulin (stimulated/basal) (isolated rat adipocytes [3]; leptin 30 nM 15 h) | Lipogenesis, stimulation factor for insulin (stimulated/basal) (isolated rat adipocytes [3]; leptin 100 nM 15 h) | insulin sensitivity of stimulation of lipogenesis (isolated rat adipocytes [3]; leptin, basal values unaffected) | Lipogenesis, stimulation factor for insulin (stimulated/basal) (isolated rat adipocytes [3]; no leptin)
Leptin | reduction in nutrient intake | decrease in weight | drastically reduced | stimulated | stimulated | decreases | 3.9 | 3.2 | 2.15 | 1.5 | 1.15 | 1.05 | drastically reduced | 
Insulin: human insulin used to stimulate adipocytes [reference compound] |  |  |  |  |  |  |  |  |  |  |  |  |  | 3.9
